From EPA's CvTdb concentration-time database
Values belong to the molecule of their own block, whether it stands above or below them.

Legend:
Rat [1] = assay: concentration in plasma after dosing; conditions: 5 min; dosed: Wyeth-14643; 2.0 mg/kg; oral; Male; Sprague-Dawley
Rat [2] = assay: concentration in plasma after dosing; conditions: dosed: Wyeth-14643, 1.0 mg/kg, oral, Male, Sprague-Dawley
Rat [3] = assay: concentration in liver after dosing; conditions: 20 min; dosed: Bis 2-Chloroethoxy Methane; 20 mg/kg; iv; Female; F344
Rat [4] = assay: concentration in thymus after dosing; conditions: 40 min; dosed: Bis 2-Chloroethoxy Methane; 20 mg/kg; iv; Female; F344
Rat [5] = assay: concentration in plasma after dosing; conditions: 2 h; dosed: Bis 2-Chloroethoxy Methane; 20 mg/kg; iv; Male; F344
Rat [6] = assay: concentration in thymus after dosing; conditions: 2 h; dosed: Bis 2-Chloroethoxy Methane; 20 mg/kg; iv; Female; F344
Rat [7] = assay: concentration in thymus after dosing; conditions: 4 h; dosed: Bis 2-Chloroethoxy Methane; 20 mg/kg; iv; Male; F344
Rat [8] = assay: concentration in plasma after dosing; conditions: 10 min; dosed: Bis 2-Chloroethoxy Methane; 20 mg/kg; iv; Female; F344
Rat [9] = assay: concentration in plasma after dosing; conditions: dosed: Bis 2-Chloroethoxy Methane, 40 mg/kg, iv, Male, Harlan Sprague Dawley
Rat [10] = assay: concentration in liver after dosing; conditions: 6 h; dosed: Fluorotelomer alcohol 8+2; 80 mg/kg; oral; Female; Harlan Sprague Dawley
Rat [11] = assay: concentration in liver after dosing; conditions: 3 h; dosed: Fluorotelomer alcohol 8+2; 80 mg/kg; oral; Female; Harlan Sprague Dawley
Rat [12] = assay: concentration in plasma after dosing; conditions: dosed: Fluorotelomer alcohol 8+2, 12 mg/kg, oral, Male, Harlan Sprague Dawley
Rat [13] = assay: concentration in kidney after dosing; conditions: 0.5 h; dosed: Fluorotelomer alcohol 8+2; 80 mg/kg; oral; Female; Harlan Sprague Dawley
Rat [14] = assay: concentration in plasma after dosing; conditions: dosed: Fluorotelomer alcohol 8+2, 12 mg/kg, oral, Male, Harlan Sprague Dawley; remark: listed apart in the source
Rat [15] = assay: concentration in plasma after dosing; conditions: 2 h; dosed: Di-n-butyl phthalate; 100 mg/kg; oral; Male; Sprague-Dawley
Rat [16] = assay: concentration in plasma after dosing; conditions: 3 h; dosed: Di-n-butyl phthalate; 50 mg/kg; oral; Male; Sprague-Dawley
Rat [17] = assay: concentration in plasma after dosing; conditions: 10 min; dosed: Di-n-butyl phthalate; 50 mg/kg; oral; Male; Sprague-Dawley
Rat [18] = assay: concentration in plasma after dosing; conditions: 2 h; dosed: Di-n-butyl phthalate; 50 mg/kg; oral; Male; Sprague-Dawley
Rat [19] = assay: concentration in plasma after dosing; conditions: 10 h; dosed: Di-n-butyl phthalate; 100 mg/kg; oral; Male; Sprague-Dawley
Rat [20] = assay: concentration in plasma after dosing; conditions: 20 h; dosed: Di-n-butyl phthalate; 200 mg/kg; oral; Male; Sprague-Dawley
Rat [21] = assay: concentration in liver after dosing; conditions: 864 h; dosed: Perfluorodecanoic acid; 10 mg/kg; oral; Female; Harlan Sprague Dawley
Rat [22] = assay: concentration in plasma after dosing; conditions: dosed: Perfluorodecanoic acid, 2 mg/kg, iv, Male, F344
Rat [23] = assay: concentration in plasma after dosing; conditions: 22 h; dosed: Primidone; 30 mg/kg; oral; Male; F344
Rat [24] = assay: concentration in plasma after dosing; conditions: 22 h; dosed: Primidone; 130 mg/kg; oral; Female; F344
Rat [25] = assay: concentration in plasma after dosing; conditions: 6 h; dosed: Primidone; 30 mg/kg; oral; Female; F344
Rat [26] = assay: concentration in plasma after dosing; conditions: 6 h; dosed: Primidone; 80 mg/kg; oral; Female; F344
Rat [27] = assay: concentration in liver after dosing; conditions: 6.667 h; dosed: Thiodiglycolic Acid; 20 mg/kg; iv; Female; Harlan Sprague Dawley
Rat [28] = assay: concentration in liver after dosing; conditions: 8 h; dosed: Thiodiglycolic Acid; 20 mg/kg; iv; Female; Harlan Sprague Dawley
Rat [29] = assay: concentration in liver after dosing; conditions: 40 min; dosed: Thiodiglycolic Acid; 20 mg/kg; iv; Female; Harlan Sprague Dawley
Rat [30] = assay: concentration in heart after dosing; conditions: 6.667 h; dosed: Thiodiglycolic Acid; 20 mg/kg; iv; Female; Harlan Sprague Dawley
Rat [31] = assay: concentration in heart after dosing; conditions: 40 min; dosed: Thiodiglycolic Acid; 20 mg/kg; iv; Male; Harlan Sprague Dawley
Rat [32] = assay: concentration in heart after dosing; conditions: 3 h; dosed: Thiodiglycolic Acid; 20 mg/kg; iv; Female; Harlan Sprague Dawley
Rat [33] = assay: concentration in heart after dosing; conditions: 2 h; dosed: Thiodiglycolic Acid; 20 mg/kg; iv; Female; Harlan Sprague Dawley
Rat [34] = assay: concentration in heart after dosing; conditions: 5.333 h; dosed: Thiodiglycolic Acid; 20 mg/kg; iv; Female; Harlan Sprague Dawley
Rat [35] = assay: concentration in thymus after dosing; conditions: 5.333 h; dosed: Thiodiglycolic Acid; 20 mg/kg; iv; Female; Harlan Sprague Dawley
Rat [36] = assay: concentration in thymus after dosing; conditions: 5.333 h; dosed: Thiodiglycolic Acid; 20 mg/kg; iv; Female; Harlan Sprague Dawley; remark: listed apart in the source
Rat [37] = assay: concentration in thymus after dosing; conditions: 3 h; dosed: Thiodiglycolic Acid; 20 mg/kg; iv; Female; Harlan Sprague Dawley
Rat [38] = assay: concentration in plasma after dosing; conditions: 20 min; dosed: Thiodiglycolic Acid; 20 mg/kg; iv; Female; F344
Rat [39] = assay: concentration in plasma after dosing; conditions: 2 h; dosed: Thiodiglycolic Acid; 20 mg/kg; iv; Female; Harlan Sprague Dawley
Rat [40] = assay: concentration in plasma after dosing; conditions: 20 min; dosed: dichloroacetic acid; 10 mg/kg; iv; Male; F344

concentration in plasma (Rat [1]): 401 ng/mL | concentration in plasma (Rat [2]; 2 h): 709 ng/mL | concentration in plasma (Rat [2]; 8 h): 189 ng/mL
Compound: Cc1cccc(Nc2cc(Cl)nc(SCC(=O)O)n2)c1C

Compound: ClCCOCOCCCl [Bis 2-Chloroethoxy Methane]
concentration in liver (Rat [3]): 1330 ng/g | concentration in thymus (Rat [4]): 6590 ng/g | concentration in plasma (Rat [5]): 99.4 ng/mL | concentration in thymus (Rat [6]): 376 ng/g | concentration in thymus (Rat [7]): 149 ng/g | concentration in plasma (Rat [8]): 9960 ng/mL | concentration in plasma (Rat [9]; 40 min): 8120 ng/mL | concentration in plasma (Rat [9]; 8 h): 22 ng/mL

concentration in liver (Rat [10]): 2430 ng/g | concentration in liver (Rat [11]): 13000 ng/g | concentration in plasma (Rat [12]; 1 h): 329 ng/mL | concentration in plasma (Rat [12]; 24 h): 0.982 ng/mL | concentration in kidney (Rat [13]): 3400 ng/g | concentration in plasma (Rat [14]; 1 h): 255 ng/mL | concentration in plasma (Rat [14]; 24 h): 3.4 ng/mL
Compound: OCCC(F)(F)C(F)(F)C(F)(F)C(F)(F)C(F)(F)C(F)(F)C(F)(F)C(F)(F)F [Fluorotelomer alcohol 8+2]

Compound: CCCCOC(=O)c1ccccc1C(=O)O [Mono-n-butyl phthalate]
concentration in plasma (Rat [15]): 3520 ng/mL | concentration in plasma (Rat [16]): 3050 ng/mL | concentration in plasma (Rat [17]): 26100 ng/mL | concentration in plasma (Rat [18]): 3690 ng/mL | concentration in plasma (Rat [19]): 1170 ng/mL | concentration in plasma (Rat [20]): 1290 ng/mL

Compound: O=C(O)C(F)(F)C(F)(F)C(F)(F)C(F)(F)C(F)(F)C(F)(F)C(F)(F)C(F)(F)C(F)(F)F [Perfluorodecanoic acid]
concentration in liver (Rat [21]): 59300 ng/g | concentration in plasma (Rat [22]; 12 h): 4320 ng/mL | concentration in plasma (Rat [22]; 1200 h): 1720 ng/mL

Compound: CCC1(c2ccccc2)C(=O)NC(=O)NC1=O [Phenobarbital]
concentration in plasma (Rat [23]): 1030 ng/mL | concentration in plasma (Rat [24]): 2490 ng/mL | concentration in plasma (Rat [25]): 990 ng/mL | concentration in plasma (Rat [26]): 1820 ng/mL

Compound: O=C(O)CSCC(=O)O [Thiodiglycolic Acid]
concentration in liver (Rat [27]): 17000 ng/g | concentration in liver (Rat [28]): 45300 ng/g | concentration in liver (Rat [29]): 10000 ng/g | concentration in heart (Rat [30]): 246 ng/g | concentration in heart (Rat [31]): 2320 ng/g | concentration in heart (Rat [32]): 620 ng/g | concentration in heart (Rat [33]): 1420 ng/g | concentration in heart (Rat [34]): 272 ng/g | concentration in thymus (Rat [35]): 1080 ng/g | concentration in thymus (Rat [36]): 372 ng/g | concentration in thymus (Rat [37]): 2120 ng/g | concentration in plasma (Rat [38]): 9230 ng/mL | concentration in plasma (Rat [39]): 1400 ng/mL

Compound: O=C(O)C(Cl)Cl [dichloroacetic acid]
concentration in plasma (Rat [40]): 2320 ng/mL
